These compounds were tested against T1, recombinant human MNL phosphodiesterase type IV B (Homo sapiens, UniProt Q07343) (assay: Inhibition of Recombinant Human Mononuclear Lymphocyte (MNL) Phosphodiesterase Type IV B Produced in Insect Cells with a Baculovirus Vector). Settings: 0.8 μM 3H-cAMP, pH 8, 10 min, 37° C., 1% DMSO; read-out: IC50 value, recombinant human MNL phosphodiesterase PDE IV B.
T1 construct: made in house
Format: biochemical
Procedure: Inhibition of Recombinant Human Mononuclear Lymphocyte (MNL) Phosphodiesterase Type IV B Produced in Insect Cells with a Baculovirus Vector The alleviating and/or curing effect of the instant compounds on allergic and atopic diseases was assessed by an in vitro assay system to detect an inhibiting effect on the recombinant human MNL phosphodiesterase type IV B. Seventy-two hours after infection with recombinant baculovirus, the insect cells were harvested and pelleted at 500 g for 5 minutes. The cells were lysed in 10 ml lysis-buffer consisting of 20 mM Tris, 10 mM EGTA, 2 mM Na2 EDTA, 1% Triton-X-100, 1 mM Na3 VO4, 10 mM NaF, 2 μg/ml of leupeptine, pepstatine and aprotinine, 0.3 μg/ml benzamidine and 100 μg/ml TPCK pH 7.5. After 5 minutes on ice, solubilized cells were centrifuged at 4000 rpm for 15 minutes at 4° C. The resulting supernatant was filtered through a 0.45 μm filter (Millipore) and brought to TBS buffer (50 mM Tris, 150 mM NaCl pH 7.4). […] The inhibiting effect of the present compounds on recombinant human MNL phosphodiesterase PDE IV B was measured at different concentrations of the instant compounds. The IC50 values (expressed in M) were calculated graphically from the thus obtained inhibition values.

T1 sequence (Q07343 1-564 isoform Q07343-2): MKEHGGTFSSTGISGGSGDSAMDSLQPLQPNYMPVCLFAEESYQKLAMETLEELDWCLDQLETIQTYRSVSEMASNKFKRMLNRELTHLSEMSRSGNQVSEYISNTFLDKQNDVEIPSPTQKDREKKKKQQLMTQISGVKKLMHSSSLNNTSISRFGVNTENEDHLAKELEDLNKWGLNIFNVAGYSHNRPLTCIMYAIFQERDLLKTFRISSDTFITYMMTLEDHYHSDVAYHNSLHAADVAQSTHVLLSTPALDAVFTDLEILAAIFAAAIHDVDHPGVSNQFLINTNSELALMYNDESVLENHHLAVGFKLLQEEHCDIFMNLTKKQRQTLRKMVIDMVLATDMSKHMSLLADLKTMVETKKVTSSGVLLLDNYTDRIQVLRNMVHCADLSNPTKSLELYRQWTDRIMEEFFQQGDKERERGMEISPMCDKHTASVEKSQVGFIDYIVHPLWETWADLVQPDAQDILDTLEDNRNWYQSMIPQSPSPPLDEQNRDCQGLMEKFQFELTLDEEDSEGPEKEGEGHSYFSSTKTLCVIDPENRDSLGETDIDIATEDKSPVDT

SMILES | IC50 [nM]
COc1ccc(C(=O)Cn2ccnc2O)cc1OC1CCCC1 [Compound 1, 1-[2-[3-(cyclopentyloxy)-4-methoxyphenyl]-2-oxoethyl]-1,3-dihydro-2H-imidazol-2-one] | < 1000
C=C(Cn1cc[nH]c1=O)c1ccc(OC)c(OC2CCCC2)c1 [Compound 4, 1-[2-[3-(cyclopentyloxy)-4-methoxy-phenyl]-2-propenyl]-1,3-dihydro-2H-imidazol-2-one] | < 1000

The compounds below were run on dextran-induced oedema formation in mouse ear (assay: Dextran-Induced Oedema Formation in Mouse Ear). Settings: oral, mice, 1 h before i.v. dextran T500 and pontamine sky-blue, compared with background extravasation, read-out: % inhibition of the extravasation of the dye.
Format: in vivo, male Swiss mice
Procedure: Dextran-Induced Oedema Formation in Mouse Ear
Systemic injection of dextran T500 in normal, non-sensitized mice elicits increased vascular permeability, leading to extravasation and oedema of the extremities. When dextran is injected together with a blue dye, blueing of the ears is the most prominent feature of oedematous response.
Male Swiss mice weighing 24-26 g were orally pretreated with the test compound dissolved in PEG-200 at different concentrations or solvent. One hour later, the mice were given an intravenous injection with an isotonic saline solution containing 12 mg/ml dextran T500 and 2.6 mg/ml pontamine sky-blue dye, in a volume of 0.1 ml per 10 g body weight. One hour and forty-five minutes later, the animals are sacrificed by ether and their ears removed. Extraction and quantification of the extravasated dye is done as described by Van Wauwe and Goossens (Drug Dev. Res. 1986, 8, 213-218).
The extravasation of the dye is characterized by the blueing value which is defined as the concentration of the extracted dye in both ears. The background blueing value was determined once as the mean blueing value obtained by injecting a group of mice with a saline solution containing only dextran T500 and the blue dye. Table 2 lists the percentage inhibition of the extravasation of the dye when compared with the background extravasation of the dye when the test compound was administered at a dose of 5 mg/kg.

SMILES | inhibition in vivo at 5 mg/kg [%]
COc1ccc(C(=O)CN2CCN(C3CCCCO3)C2=O)cc1OC (racemic) [Compound 8, (±)-1-[2-(3,4-dimethoxyphenyl)-2-oxoethyl]-3-(tetrahydro-2H-pyran-2-yl)-2-imidazolidinone] | 5.2
COc1ccc(C(=O)Cn2ccnc2O)cc1OC1CCCC1 [Compound 1, 1-[2-[3-(cyclopentyloxy)-4-methoxyphenyl]-2-oxoethyl]-1,3-dihydro-2H-imidazol-2-one] | 48.3
CCOC(=O)n1ccn(CC(=O)c2ccc(OC)c(OC3CCCC3)c2)c1=O [Compound 2, ethyl 3-[2-[3-(cyclopentyloxy)-4-methoxphenyl]-2-oxoethyl]-2,3-dihydro-2-oxo-1H-imidazole-1-carboxylate] | 55.6
COc1ccc(C(=O)Cn2ccn(Cc3ccccc3)c2=O)cc1OC [Compound 5, 1-[2-(3,4-dimethoxyphenyl)-2-oxoethyl]-1,3-dihydro-3-(phenylmethyl)-2H-imidazol-2-one] | 28.7
COc1ccc(C(=O)CN2CCNC2=O)cc1OC [Compound 7, 1-[2-(3,4-dimethoxyphenyl)-2-oxoethyl]-2-imidazolidinone] | 22.6
COc1ccc(/C(=C\C#N)CN2CCNC2=O)cc1OC [Compound 9, (E)-3-(3,4-dimethoxyphenyl)-4-(2-oxo-1-imidazolidinyl)-2-butenenitrile] | 53.8
COc1ccc(Cn2ccn(CC(=O)c3ccc(OC)c(OC4CCCC4)c3)c2=O)cc1 [Compound 10, 1-[2-[3-(cyclopentyloxy)-4-methoxyphenyl]-2-oxoethyl]-1,3-dihydro-3-[(4-methoxyphenyl)methyl]-2H-imidazol-2-one] | 56
COc1ccc(C(=O)Cn2ccn(C(c3ccccc3)c3ccccc3)c2=O)cc1OC [Compound 11] | 34.6
COc1ccc(Cn2ccn(CC(=O)c3ccc(OC)c(OC)c3)c2=O)c(OC)c1 [Compound 12] | 26.4
COc1ccc(C(=O)CN2CCNC2=O)cc1OC1CCCC1 [Compound 13] | 27.9
CCOC(=O)N1CCN(CC(=O)c2ccc(OC)c(OC)c2)C1=O [Compound 15] | 19.2

Reference: patent US5869515A, “1,3-dihydro-2H-imidazol-2-one compounds” (Janssen Pharmaceutica N.V., priority 1995, dated 1999)
